In patent US20040253243A1, “Aptamer therapeutics useful in ocular pharmacotherapy” (priority 2003, published 2004):
Changes are numbered by the printed parent chain. Where two headings read alike, the source gives them in different places. Marks after values point to notes of the source that are not given here. {3T} = T cap written 3T / [3'T]; {NH2} = amine group; m = 2'-O-methyl; r = 2'-OH (RNA); f = 2'-fluoro

Experiments:
[1] = system: retinal pigmented epithelial (RPE) cells; assay: RPE cell migration with PDGF; type: cell-based; conditions: 100 ng/ml PDGF
From the text: The graphs presented in FIG. 15E and 15F show the increasing effect of PDGF concentration on RPE cell migration.

TGFβ2 = target: T1, TGFβ2 (Homo sapiens, UniProt P61812); assay: Nitrocellulose-filter partitioning binding of 32P-labeled aptamer to TGFβ-2 protein; parameters: A synthetic polynucleotide encoding full length human TGFβ2 mature protein was cloned into pRSET E. coli expression vector; made in house
T1 sequence (P61812 303-414 limits assumed): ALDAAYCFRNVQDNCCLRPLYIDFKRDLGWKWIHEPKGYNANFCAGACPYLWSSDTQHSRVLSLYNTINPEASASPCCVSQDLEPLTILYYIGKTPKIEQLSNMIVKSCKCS
Description: (§1) Dissociation constants for the binding of aptamers to purified human or rodent TGFβ-2 protein were determined by nitrocellulose-filter partitioning using ^32P-labeled RNA. In vitro transcribed RNA was treated with calf-intestinal alkaline phophatase (New England Biolabs) to remove 5′-triphosphates, then radio-labeled by incubation with γ-^32P-ATP and T4 polynucleotide kinase (New England Biolabs). Unincorporated label was removed by gel-filtration, and the RNAs were further purified by polyacrylamide gel electrophoresis (PAGE). Purified ^32P-labeled aptamer in water was refolded just prior to use by heating for 3 min at 95° C., followed by a 10 minute room-temperature incubation in binding buffer (50 mM Hepes, pH 7.4, 1 mM MgCl2, 1 mM CaCl2, 3 mM KCl, 140 mM NaCl, 0.1 mg/ml BSA, 0.01 mg/ml tRNA). The binding reactions (100 μL) were initiated by the addition of aptamer (≦0.1 nM) to excess TGFβ-2 protein (0.2-100 nM), followed by 10-30 minute equilibration at room temperature.
Nitrocellulose-filter partitioning was performed on Minifold® I, 96-well Dot-Blot manifolds (Schleicher & Schuell). Protein-bound aptamer and residual free aptamer were captured, respectively, on pre-wetted Protran nitrocellulose (Schleicher & Schuell) and Hybond-P polyvinylidene difluoride (Amersham Biosciences) filters by vacuum aspiration, and quantified by PhosphorImager (Amersham Biosciences). The proportion of protein-bound aptamer at each TGFβ-2 concentration was plotted as the ratio of counts-per-minute on the Protran nitrocellulose filter (CPMNC) to the sum of CPM on the Protran and Hybond-P filters (CPMtotal). Estimates of dissociation constants (KD) were obtained from a fit of the concentration of TGFβ-2 (i.e., [TGFβ-2])-dependent data to a standard binding isotherm: CPMNC/CPMtotal=Cmax/(1+KD/[TGFβ2]total), where Cmax equals the maximum observed value of CPMNC/CPMtotal at saturating [TGFβ-2], likely reflecting the proportion of properly-folded aptamer that is competent to recognize TGFβ-2.

[2] = system: N-terminal His tagged human TGFβ2; assay: Nitrocellulose-filter binding to His-tagged TGFβ2; conditions: FIG. 6C; read-out: binding affinity, N-terminal His tagged human TGFβ2
Description: A synthetic polynucleotide encoding full length human TGFβ2 mature protein was cloned into pRSET E. coli expression vector and transformed into BL21 (pLys) strain. The transformed cells were grown under conditions leading to TGFβ2 protein being expressed at high level and forming inclusion bodies. The inclusion bodies were purified and solubilized. The TGFβ2 was refolded and purified by S75 size exclusion chromatography (FIG. 4A). A His-tagged TGFβ2 was also generated by adding His6 plus 30 extra amino acids at the N terminus of TGFβ2. Mutations at positions 59 (S→T), 60 (R→K) and 94 (K→N), referred to herein as the S59T/R60K/K94N mutant, were introduced by site directed mutagenesis. Both the His-tagged and mutated TGFβ2 were expressed, refolded and purified using the same protocol as for wild type TGFβ2.
Dissociation constants for the binding of aptamers to purified human or rodent TGFβ-2 protein were determined by nitrocellulose-filter partitioning using ^32P-labeled RNA. […]
(§2) Nitrocellulose-filter partitioning was performed on Minifold® I, 96-well Dot-Blot manifolds (Schleicher & Schuell). Protein-bound aptamer and residual free aptamer were captured, respectively, on pre-wetted Protran nitrocellulose (Schleicher & Schuell) and Hybond-P polyvinylidene difluoride (Amersham Biosciences) filters by vacuum aspiration, and quantified by PhosphorImager (Amersham Biosciences). […]

human TGFβ2 [3] = target: T2, human TGFβ2 (Homo sapiens, UniProt P61812); assay: MLEC proliferation assay (reversal of TGFβ2-mediated inhibition, BrdU); type: cell-based; conditions: for inhibition of the antiproliferative effects of TGFβ2: 50 pg/ml of TGFβ2, BrdU incorporation
T2 construct: two forms of mature TGFβ2 were generated, native and N-terminal his-tagged versions, in E. coli; made in house; host or cells: E. coli; added as soluble protein to MLEC
T2 sequence (P61812 303-414): T1 sequence (P61812 303-414 limits assumed)
Description: (§3) MLECs were plated at 2,000 cells per well and incubated at 37° C. for 4 hours. Aptamer and TGFβ2 were added at the indicated concentrations for 16 hours at 37° C. Cell proliferation was measured using BrdU incorporation. BrdU assay was performed as recommended by the manufacturer (Roche Diagnostics).
(§4) MLEC Assay. The mink lung epithelial cell proliferation assay is performed over two days. On day 1:1) media is aspirated off from Mink Lung Epithelial Cells (MLEC); 2) the MLEC are washed with 10 ml 1×PBS; 3) 3 ml Trypsin is added and Trypsinize for 3 min at 37° C.; 4) quench with 10 ml 0.5% FBS media; 5) spin at 1000 rpm for 3.30 min; 6) aspirate off supernatant; 7) resuspend pellet in 10 ml 0.5% FBS media; 8) Count 10 μl cell suspension; 9) adjust cell density to 80,000 cells/ml; 10) add 50 μl of cells/well to black bottomed 96-well plates (4000 cells/well); pipet up and down during plating process to avoid settling of cells and uneven plating; 11) incubate cells at 37° C. in 5% CO2 for 4 hrs to allow adherence of cells; 12) add 25 μl of aptamer (or media, or other test reagent, such as for example, an antibody), preferably the outer wells are not used for treated cells; 13) add 25 μl of TGFβ2 (typically 25 pg/ml); and 14) incubate cells at 37° C. in 5% CO2 overnight.
(§5) On day 2:1) mix 20 μl BrdU with 2 ml 0.5% FBS media; 2) add 10 μl of BrdU mixture/well; 3) incubate cells at 37° C. in 5% CO2 for 3 hrs; 4) remove media and blot plates dry on paper towels; 5) add 200 μl/well FixDenat solution and incubate for 30 min at room temperature (RT); 6) remove FixDenat solution and blot plates dry on paper towels; 7) add 100 μl /well anti-BrdU POD solution and incubate for 90 min at RT; 8) remove anti-BrdU POD solution and blot plates dry on paper towels; 9) wash plates 3× with […] washing solution with 5 min RT incubations and blot plates dry on paper towels; 10) add 100 μl /well substrate solution and incubate for 3 min at RT in dark; and 11) read plates using PSP Luciferace 1 program on TopCount (Packard Bioscience Co., Downers Grove, Ill.).

human TGFβ2 [4] = assay: as above; type: cell-based; conditions: FIG. 6B
Description: as §3, §4, §5

mouse (NTK) TGFβ2 = target: T3, mouse (NTK) TGFβ2 (Homo sapiens, UniProt P61812, K396N/R362K/S361T); assay: Nitrocellulose-filter binding to mouse TGFβ2; conditions: FIG. 6C; read-out: binding affinity, mouse (NTK) TGFβ2
T3 construct: A synthetic polynucleotide encoding full length human TGFβ2 mature protein was cloned into pRSET E. coli expression vector; made in house
T3 sequence (P61812 303-414 S361T/R362K/K396N): T1 sequence (P61812 303-414 limits assumed) with S59T, R60K, K94N
Description: as §1, §2

[5] = Pharmacokinetics via subconjunctival administration; type: in vivo, mice
Description: A pharmacokinetic study was performed to determine the pharmacokinetics of ARC81, ARC117 and ARC119, TGFβ2 aptamers having the sequences of SEQ ID NOs:4, 9 and 11, respectively), via subconjunctival administration in mice. These aptamers were formulated at a concentration of 10 mg/ml. Samples were collected at 0, 0.5, 1, 2, 6, 12, 24, 48 and 96 hours post-administration. FIGS. 21A, 21B and 21C show the aqueous humor and/or plasma concentration of each aptamer (in nM) through 50 hours post dose via subconjunctival administration.

[6] = system: TGFβ2 in rabbit aqueous humor; assay: Aqueous humor challenge assay (MLEC proliferation); type: cell-based
Description: MLEC Assay. The mink lung epithelial cell proliferation assay is performed over two days. […]
as §5
MLECs were plated at 2,000 cells per well and incubated at 37° C. for 4 hours. […] Cell proliferation was measured using BrdU incorporation. […]

[7] = 32P-labeled aptamer, nitrocellulose-filter partitioning, fit to Equation 1, read-out: Kd
[8] = Aq Humour, subconjunctival, 1 mg/eye bilaterally
[9] = PLASMA, subconjunctival, 1 mg/eye bilaterally
[10] = after subconjunctival administration

5′-[PEG40K]-NH2-dCdAdGfCmGfUdAfCmG-PEG-dCdGTdAdCdCmGdATfUfCmA-PEG-TdGdAdAdGfCfUmG-3T-3′ [ARC128, reference compound]
blocking of RPE cell migration [1]: has no activity

5′-GGAGGfUfUAfUfUAfCAGAGfUfCfUGfUAfUAGfCfUGfUAfCfUfCfC-3T-3′ (GGAGGUUAUUACAGAGUCUGUAUAGCUGUACUCC; 2'-fluoro at CU, RNA at AG, 3' {3T}, backbone not given here) [ARC77]
Kd (TGFβ2; [7]): 3.6 nM
Kd (TGFβ2; FIG. 6C, read-out: binding affinity, human wild type (WT) TGFβ2): 2.5 ± 0.3 nM
Kd (TGFβ2; read-out: KD): 1 nM
Kd [2]: ≥ 500 nM
inhibition of the antiproliferative effects of TGFβ2 (human TGFβ2 [3]): inhibit the antiproliferative effects of 50 pg/ml of TGFβ2
IC50 (human TGFβ2 [3]; read-out: cell IC50): 10 nM
potency against human versus rodent form of TGFβ2 (human TGFβ2 [4]): more potent against the human form of TGFβ2 than the rodent version
Kd (mouse (NTK) TGFβ2): 80 ± 5 nM

5′-NH2-mGmGmGmGfUfUAfUfUmAfCmAmGmAmGfUfCfUGfUAfUAmGfCfUmGfUmAfCfCfC-3T-3′ (GGGGUUAUUACAGAGUCUGUAUAGCUGUACCC; sugars from the 5' end mmmmffrffmfmmmmfffrfrfrmffmfmfff, 5' {NH2}, 3' {3T}, backbone not given here) [ARC81]
AUC (0-t) [5, 8]: 36.0 nM·h
Cmax [5, 8]: 5.19 nM
MRT [5, 8]: 6.03* h
TLAST [5, 8]: 12 h
tmax [5, 8]: 6 h
AUC (0-t) [5, 9]: 29.8 nM·h
Cmax [5, 9]: 6.44 nM
MRT [5, 9]: 3.13 h
TLAST [5, 9]: 12 h
Vd [5, 9]: 21079 mL
t1/2 [5, 9]: 2.42 h
tmax [5, 9]: 1 h
detection in the aqueous humor [5, 10]: detected in the aqueous humor
time to enter systemic circulation [5, 10]: less than 0.5 hour
Kd (TGFβ2; [7]): 5.1 nM
inhibition of the antiproliferative effects of TGFβ2 (human TGFβ2 [3]): inhibit the antiproliferative effects of 50 pg/ml of TGFβ2
rescue of rabbit aqueous humor-mediated inhibition of MLEC proliferation ([6]; 1.5% rabbit aqueous humor): rescued rabbit aqueous humor-mediated inhibition of MLEC proliferation in a dose dependent manner
inhibition of antiproliferative effects of rabbit aqueous humor ([6]; low concentrations of rabbit aqueous humor (e.g., <10%), 1000 nM ARC81): inhibited the antiproliferative effects of low concentrations of rabbit aqueous humor
